Read-outs that look alike come from different tables or passages of the source.
Target: adenosine A2A receptor (Homo sapiens, UniProt P29274)
Test: Binding to the adenosine A2A receptor: displacement of radioligand [3H]-ZM241385 from membrane protein
Conditions: compound 10^-4 M, 1 nM [3H]-ZM241385
Description: The specific process was as follows: A membrane protein solution (60 μg/tube, containing ADA 2 mg/mL) and a radioligand 1 nM [3H]-ZM241385 were added to each tube. Different compounds with the concentration of 10^−4 M were added into the compound tubes respectively, shaken to mix uniformly, incubated at 37° C. for 30 minutes and the reaction was terminated in a water bath. Free and bound ligands were separated by suction filtration under negative pressure using GF/C glass fiber filter paper, washed three times with precooled 50 mM Tris-HCl, about 4 mL each time. Film was removed and placed upside down on the tray (i.e., with the grid side facing up), and baked for 3 minutes until dried. Dried small circular filter membrane was put into the liquid scintillation tube in sequence, and 2 mL of scintillation solution was added. [3H] count was then performed in a Multifunction Liquid Scintillation Counter. Each junction point was provided with triple tubes. and the average value was taken. Finally. data analysis was carried out to calculate the inhibition rate of the compound on the adenosine AzA receptor: […]

[1] = membrane protein 60 μg/tube, 37° C., 30 minutes, average of triple tubes, read-out: Adenosine A2A receptor inhibition rate
[2] = read-out: inhibition rate on adenosine A2A receptors (text summary of Table 1)

adenosine A2A receptor, sequence (P29274 whole entry): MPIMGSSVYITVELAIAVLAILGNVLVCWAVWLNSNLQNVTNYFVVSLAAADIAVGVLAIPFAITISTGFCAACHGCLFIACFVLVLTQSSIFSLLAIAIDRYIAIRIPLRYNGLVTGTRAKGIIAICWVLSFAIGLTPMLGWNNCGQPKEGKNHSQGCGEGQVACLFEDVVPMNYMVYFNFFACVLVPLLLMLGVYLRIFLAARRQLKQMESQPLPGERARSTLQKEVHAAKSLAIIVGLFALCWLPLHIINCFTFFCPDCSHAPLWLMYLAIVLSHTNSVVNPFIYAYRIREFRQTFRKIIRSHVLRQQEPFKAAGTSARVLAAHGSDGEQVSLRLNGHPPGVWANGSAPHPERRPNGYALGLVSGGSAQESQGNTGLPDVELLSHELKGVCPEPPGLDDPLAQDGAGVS

| inhibition at 100 µM [1] [%] | Adenosine A2A receptor inhibition rate (membrane protein 60 μg/tube, 37° C., 30 minutes, average of triple tubes) [%] | inhibition at 100 µM [2] [%] | Compound |
| --- | --- | --- | --- |
| 65.6 ± 4.23 | – | – | Nc1nc(C(=O)NCCO)cn2c1nc1ccccc12 [Compound 14f] |
| – | 78.27 ± 2.31 | > 70 | CC(NC(=O)c1cn2c(nc3ccccc32)c(N)n1)c1cccc2cccnc12 (stereo not drawn) [Compound 14w] |
| 61.6 ± 3.91 | – | – | CC(NC(=O)c1cn2c(nc3ccccc32)c(N)n1)c1cccc2cccnc12 (stereo not drawn) [Compound 14v] |
| 75.3 ± 4.07 | – | > 70 | CC(C)(NC(=O)c1cn2c(nc3ccccc32)c(N)n1)c1ccccn1 [Compound 14x] |
| 86.5 ± 1.02 | – | > 80 | CC(NC(=O)c1cn2c(nc3ccccc32)c(N)n1)c1ccccn1 (stereo not drawn) [Compound 14u] |
| 71 ± 4.02 | – | – | CCCCCNC(=O)c1cn2c(nc3ccccc32)c(N)n1 [Compound 14b] |

Source: patent publication US20250092050A1, “1-AMINOBENZO[4,5]IMIDAZO[1,2-A]PYRAZINE-3-FORMAMIDE COMPOUND, AND PREPARATION THEREFOR AND USE THEREOF” (SUN YAT-SEN UNIVERSITY, priority 2022, published 2025)
